Laboratory results: ChEMBL document CHEMBL1146819, “Synthesis and SAR of 2-arylbenzoxazoles, benzothiazoles and benzimidazoles as inhibitors of lysophosphatidic acid acyltransferase-beta” (Bioorg Med Chem Lett, 2004)
Calls of active or inactive are those of the source.

Key:
[1] = target: T1, 1-acyl-sn-glycerol-3-phosphate acyltransferase alpha (Homo sapiens) (UniProt Q99943); assay: Inhibitory activity against human lysophosphatidic acid acyltransferase-alpha (LPAAT-alpha) expressed in Sf9 insect cell membranes at <20 uM; Not active
T1 sequence (whole entry): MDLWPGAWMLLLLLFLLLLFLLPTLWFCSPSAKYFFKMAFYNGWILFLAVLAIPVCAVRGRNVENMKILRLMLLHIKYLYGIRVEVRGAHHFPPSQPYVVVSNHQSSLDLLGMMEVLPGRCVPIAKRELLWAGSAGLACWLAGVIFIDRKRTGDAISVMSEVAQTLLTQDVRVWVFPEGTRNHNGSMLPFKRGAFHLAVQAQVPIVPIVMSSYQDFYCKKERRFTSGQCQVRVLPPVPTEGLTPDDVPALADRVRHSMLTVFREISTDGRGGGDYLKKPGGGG

[2] = target: T2, 1-acyl-sn-glycerol-3-phosphate acyltransferase beta (Homo sapiens, UniProt O15120); assay: Inhibitory concentration against human lysophosphatidic acid acyltransferase-beta (LPAAT-beta) expressed in Sf9 insect cell membranes
T2 sequence (O15120 whole entry): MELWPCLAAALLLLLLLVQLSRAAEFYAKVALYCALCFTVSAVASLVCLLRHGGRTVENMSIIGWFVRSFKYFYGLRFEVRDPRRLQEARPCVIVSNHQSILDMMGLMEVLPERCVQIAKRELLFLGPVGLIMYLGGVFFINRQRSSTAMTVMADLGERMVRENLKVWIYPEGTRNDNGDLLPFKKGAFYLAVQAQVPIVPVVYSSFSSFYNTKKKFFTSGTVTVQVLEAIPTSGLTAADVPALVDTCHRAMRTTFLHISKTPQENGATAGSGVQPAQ

DU-145 = assay: In vitro inhibitory concentration of compound against proliferation of DU145 prostate carcinoma cells; assay type: functional, cell-based; conditions: Homo sapiens
MCF7 [3] = assay: In vitro inhibitory concentration of compound against proliferation of MCF-7 breast carcinoma cells; Range is 30-40 uM; assay type: functional, cell-based; conditions: Homo sapiens
MCF7 [4] = assay: In vitro inhibitory concentration of compound against proliferation of MCF-7 breast carcinoma cells; assay type: functional, cell-based; conditions: Homo sapiens

Structure (SMILES)	Activity [1]	IC50 [2] [nM]	IC50 (DU-145) [nM]	IC50 (MCF7 [3]) [nM]	IC50 (MCF7 [4]) [nM]
C#CCOC(=O)Nc1ccc(Cl)c(-c2nc3c(C)cccc3o2)c1	inactive				
COC(=O)Nc1cccc(-c2nc3cc(C)ccc3o2)c1	inactive	> 64000			
N#CCC(=O)Nc1ccc(Cl)c(-c2nc3cc(C(F)(F)F)ccc3s2)c1	inactive	50			
COC(=O)Nc1ccc(F)c(-c2nc3cc(C)ccc3o2)c1	inactive	> 64000			
COC(=O)Nc1ccc(Cl)c(-c2nc3ccc(C)cc3n2C)c1	inactive	> 20000			
C#CCOC(=O)Nc1ccc(Cl)c(-c2nc3cc(C(F)(F)F)ccc3[nH]2)c1	inactive	5200			
COC(=O)Nc1ccc(Cl)c(-c2nc3cc(Cl)ccc3n2C)c1	inactive	650			
Cc1ccc2oc(-c3cc(NC(=O)CO)ccc3Cl)nc2c1	inactive	31000			
Cc1ccc2oc(-c3cc(NCCCC#N)ccc3Cl)nc2c1		> 5000			
COC(=O)Nc1ccc(Cl)c(-c2nc3cc(C(F)(F)F)ccc3s2)c1	inactive				
C#CCCOC(=O)Nc1ccc(Cl)c(-c2nc3cc(Cl)ccc3o2)c1	inactive	75			
N#CCC(=O)Nc1ccc(Cl)c(-c2nc3cc(Cl)ccc3o2)c1	inactive	27			
C#CCOC(=O)Nc1ccc(Cl)c(-c2nc3cc(C(F)(F)F)ccc3s2)c1	inactive		20000	40000	
COC(=O)Nc1ccc(Cl)c(-c2nc3cc(Cl)ccc3o2)c1	inactive				
C#CCNC(=O)Nc1ccc(Cl)c(-c2nc3cc(Cl)ccc3o2)c1	inactive	100			
CCOC(=O)Nc1ccc(Cl)c(-c2nc3cc(C)ccc3o2)c1	inactive	1500			
C#CCOC(=O)Nc1ccc(Cl)c(-c2nc3cc(C(F)(F)F)ccc3o2)c1	inactive				
C#CCOC(=O)Nc1ccc(Cl)c(-c2nc3ccccc3o2)c1	inactive		50000		20000
COC(=O)Nc1ccc(C)c(-c2nc3cc(C)ccc3o2)c1	inactive				
CNCC(=O)Nc1ccc(Cl)c(-c2nc3cc(Cl)ccc3o2)c1	inactive	> 5000			
COC(=O)Nc1ccc(Cl)c(-c2nc3cc(-c4ccccc4)ccc3o2)c1	inactive	64000			
COC(=O)Nc1ccc(Cl)c(-c2nc3ccc(C)cc3o2)c1	inactive	400			

Structure (SMILES)	Activity [1]	IC50 [2] [nM]	IC50 (DU-145) [nM]	IC50 (MCF7 [3]) [nM]	IC50 (MCF7 [4]) [nM]
C#CCOC(=O)Nc1ccc(Cl)c(-c2nc3cc(O)ccc3o2)c1	inactive	2000			
CCCC(=O)Nc1ccc(Cl)c(-c2nc3cc(C)ccc3o2)c1	inactive	2500			
COC(=O)Nc1ccc(Cl)c(-c2nc3c(C)cccc3o2)c1	inactive	500			
COC(=O)Nc1ccc(Cl)c(-c2nc3c(C)cccc3s2)c1	inactive	9000			
COC(=O)Nc1ccc(Cl)c(-c2nc3ccc(C)cc3s2)c1	inactive	> 64000			
Cc1cc(-c2nc3ccccc3s2)ccc1N		> 40000			
CC#CC(=O)Nc1ccc(Cl)c(-c2nc3cc(C)ccc3o2)c1	inactive	> 20000			
C=CCOC(=O)Nc1ccc(Cl)c(-c2nc3cc(C)ccc3o2)c1	inactive	1400			
C#CCCC(=O)Nc1ccc(Cl)c(-c2nc3cc(Cl)ccc3o2)c1	inactive	100			
N#CCC(=O)Nc1ccc(Cl)c(-c2nc3cc(Cl)ccc3s2)c1	inactive				
C#CCOC(=O)Nc1ccc(Cl)c(-c2nc3cc(Cl)ccc3o2)c1	inactive		50000		15000
C#CCOC(=O)Nc1ccc(C)c(-c2nc3cc(Cl)ccc3o2)c1	inactive	100			
C#CCOC(=O)Nc1ccc(Cl)c(-c2nc3cc(C(F)(F)F)ccc3n2C)c1	inactive	120			
COC(=O)Nc1ccc(Cl)c(-c2nc3cc(C(F)(F)F)ccc3o2)c1	inactive	800			
COC(=O)Nc1ccc(OC)c(-c2nc3cc(C)ccc3o2)c1	inactive	64000			
CC#CCOC(=O)Nc1ccc(Cl)c(-c2nc3cc(Cl)ccc3o2)c1	inactive	75			
C#CCOC(=O)Nc1ccc(Cl)c(-c2nc3cc(Cl)ccc3s2)c1	inactive		> 50000		> 50000
CC#CC(=O)Nc1ccc(Cl)c(-c2nc3cc(Cl)ccc3o2)c1	inactive	> 20000			
CN(C)CC(=O)Nc1ccc(Cl)c(-c2nc3cc(Cl)ccc3o2)c1	inactive	> 5000			
Cc1ccc2oc(-c3cc(NC(=O)CC#N)ccc3Cl)nc2c1	inactive	100			
Cc1ccc2oc(-c3cc(NC(=O)OC(C)C)ccc3Cl)nc2c1	inactive	16000			

The next lines start with the values.

Activity [1]	IC50 [2] [nM]	IC50 (DU-145) [nM]	IC50 (MCF7 [3]) [nM]	IC50 (MCF7 [4]) [nM]	Structure (SMILES)
inactive	950				CNC(=O)Nc1ccc(Cl)c(-c2nc3cc(Cl)ccc3o2)c1
inactive	> 20000				COC(=O)Nc1ccc(Cl)c(-c2nc3cc(C(=O)O)ccc3o2)c1
inactive	600				Cc1ccc2oc(-c3cc(NC(=O)CN=[N+]=[N-])ccc3Cl)nc2c1
inactive					C#CCOC(=O)Nc1ccc(Cl)c(-c2nc3cc(C)ccc3o2)c1
inactive					COC(=O)Nc1ccc(Cl)c(-c2nc3ccccc3o2)c1
inactive					C#CCOC(=O)Nc1ccc(Cl)c(-c2nc3cc(Cl)ccc3n2C)c1
inactive	70				Cc1ccc(NC(=O)CC#N)cc1-c1nc2ccccc2s1
inactive	1500	40000		40000	CCC(=O)Nc1ccc(Cl)c(-c2nc3cc(C)ccc3o2)c1
inactive	11000				COC(=O)Nc1ccc(Cl)c(-c2nc3cc(C)ccc3n2C)c1
inactive	170				[N-]=[N+]=NCC(=O)Nc1ccc(Cl)c(-c2nc3cc(Cl)ccc3o2)c1
inactive	40000				Cc1ccc2oc(-c3cc(NC(=O)c4ccccc4)ccc3Cl)nc2c1
inactive					COC(=O)Nc1ccc(Cl)c(-c2nc3cc(Cl)ccc3s2)c1
inactive	15				C#CCOC(=O)Nc1ccc(C)c(-c2nc3cc(Cl)ccc3s2)c1
inactive	500				C#CCCC(=O)Nc1ccc(Cl)c(-c2nc3cc(C)ccc3o2)c1
inactive	550				COC(=O)Nc1ccc(C)c(-c2nc3cc(Cl)ccc3o2)c1
inactive	300				Cn1c(-c2cc(NC(=O)CC#N)ccc2Cl)nc2cc(Cl)ccc21
inactive	1000				COC(=O)Nc1ccc(Cl)c(-c2nc3cc(C)ccc3o2)c1
inactive	> 5000				Cc1ccc2oc(-c3cc(NC=O)ccc3Cl)nc2c1
inactive	> 20000				COC(=O)Nc1ccc(Cl)c(-c2nc3cc(O)ccc3o2)c1
inactive	2500				CC(=O)Nc1ccc(Cl)c(-c2nc3cc(C)ccc3o2)c1
inactive	12000				CCCOC(=O)Nc1ccc(Cl)c(-c2nc3cc(C)ccc3o2)c1
